We go through four compounds from publication PMC11855086, “Synthesis, Antimicrobial Activity, and Tyrosinase Inhibition by Multifunctional 3,4-Dihydroxy-Phenyl Peptidomimetics” (International Journal of Molecular Sciences, 2025).

Data set [1] relates to A. baumannii (ATCC 17978). Put plainly: MIC and MBC, microtiter plate technique. The data set is classed as cell-based. The conditions noted are these: ATCC17978, Acinetobacter baumannii; for MIC: 24 h, resazurin; for MBC: TTC.
A further data set concerns S. aureus (ATCC 23235). Put plainly: microbe, parasite or virus in culture. The data set is classed as cell-based. The conditions noted are these: Staphylococcus aureus; for MBC: ATCC23235; for MIC: ATCC23235, 24 h.
For data set [2], the system named is P. aeruginosa (ATCC 15442). Put plainly: MIC and MBC, microtiter plate technique. The note with it: ATCC15442, Pseudomonas aeruginosa; for MIC: 24 h, resazurin; for MBC: TTC. The data set is classed as cell-based.
The target of data set [3] is T1, mushroom tyrosinase (mTYR) (Agaricus bisporus, UniProt C7FF04).
T1 construct: purchased Sigma-Aldrich (Poznan, Poland); host or cells: Agaricus bisporus (extracted natural enzyme)
T1 sequence (C7FF04 1-392 limits assumed): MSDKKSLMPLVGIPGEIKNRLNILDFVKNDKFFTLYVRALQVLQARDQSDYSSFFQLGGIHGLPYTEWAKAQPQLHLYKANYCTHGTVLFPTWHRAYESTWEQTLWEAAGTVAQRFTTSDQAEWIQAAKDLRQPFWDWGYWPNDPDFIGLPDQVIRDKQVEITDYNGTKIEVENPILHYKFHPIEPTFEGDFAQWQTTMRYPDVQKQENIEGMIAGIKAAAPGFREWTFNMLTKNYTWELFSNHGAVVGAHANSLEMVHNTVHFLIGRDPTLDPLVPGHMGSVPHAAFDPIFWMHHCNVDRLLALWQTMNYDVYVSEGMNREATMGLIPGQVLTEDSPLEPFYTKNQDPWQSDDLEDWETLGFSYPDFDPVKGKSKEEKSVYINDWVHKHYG
Description: Tyrosinase assay with L-DOPA as substrate (absorbance at 475 nm). The data set is classed as biochemical. The conditions noted are these: 100 µM compound. From the text:
Tyrosinase (Tyr) extracted from Agaricus bisporus (mushroom tyrosinase, mTYR) is commonly used as a model enzyme for human Tyr due to its high purity, stability, and commercial availability. It is frequently used in the selection of TYR inhibitors. Following established literature protocols, L-tyrosine and L-DOPA, which serve as substrates for monophenol and diphenol oxidation, respectively, were used to assess the tyrosinase inhibitory activity of synthesized target compounds [21].
Tyrosinase (Tyr) activity was measured using L-DOPA as substrate and phosphate buffer solution (PBS) as blank control, following the method described by Min He et al. (2022) with an ultraviolet spectrophotometer (Carry-300, Agilent Life Sciences and Chemical Analysis, Santa Clara, CA, USA). […] Before the experiment, 2.9 mL of PBS and 0.1 mL of DMSO were used to account for the influence of the background solvent. The inhibitor solution (100 µL), substrate solution (2.8 mL), and Tyr solution (100 µL) were then added to a quartz colorimetric cuvette. After a one-minute mixing period, the absorption spectra of the mixture were continuously recorded at 475 nm using the UV spectrophotometer (Carry-300) for 5 min over a period of every 30 s. The tyrosinase inhibition rate was calculated as follows:Relative enzyme activity (%) = (A1 − A2)/A1 × 100
A1 = Absorbance of L-DOPA and inhibitor.
A2 = Absorbance of L-DOPA, inhibitor, and tyrosinase.

A further data set deals with E. cloacae (ATCC 49141). Put plainly: MIC and MBC, microtiter plate technique. It counts as cell-based. The note with it: ATCC49141, Enterobacter cloacae; for MIC: 24 h, resazurin; for MBC: TTC.
The nature of a further data set: MTT cytotoxicity assay. It counts as cell-based. The conditions noted are these: mouse, BALB/c3T3 mouse embryonic fibroblast cells; 1.0 µM, 24 h; read-out: cell viability. The protocol: Following the completion of MIC and MBC assays on the analyzed bacterial strains, and subsequent treatment with Fpg protein modified by peptidomimetics along with selected antibiotics, a further MTT assay was conducted to evaluate the cytotoxicity of the compounds employing the BALB/c3T3 mouse embryonic fibroblast cell line (Figure 10).
BALB/c3T3 mouse embryonic fibroblast cells were exposed to peptidomimetics across concentrations ranging from 0.5 µM to 3.5 µM and incubated for a duration of 24 h. […] The highest concentrations (2.5 µM and 3.5 µM) inhibited cell viability, which was reduced to 20.2% and 1.0%, respectively (Figure 10 and Figure S40 in the Supplementary Materials).
The cytotoxic effects of aldehyde 1 and peptidomimetics 5a–r on BALB/c3T3 mouse fibroblast cells were assessed utilizing the MTT assay following a 24 h incubation period across five different concentrations (0.5, 1.0, 1.5, 2.5, and 3.5 µM). The MTT assay is predicated upon the capacity of mitochondrial dehydrogenase enzymes to convert the water-soluble tetrazolium salt, 3-([…])-2,5-diphenyltetrazolium bromide (MTT), into an insoluble formazan product, manifesting as dark blue crystals. These formazan crystals are then dissolved in DMSO or isopropanol, forming a colored solution whose intensity is measured spectrophotometrically within the wavelength range of 492–570 nm. The amount of MTT reduced corresponds to the oxidative activity of the mitochondria, which is directly proportional to the number of metabolically active cells in the population under defined experimental conditions. The MTT assay can also be used to assess cell viability in non-dividing metabolically active cells. It is one of the most widely used methods to assess cytotoxic activity and is recommended by international standards organizations as a reference method.

For the next data set, the system named is E. coli R3 (ATCC 11775). Description: MIC and MBC, microtiter plate technique. The data set is classed as cell-based. The note with it: Escherichia coli; for MIC: ATCC11775, 24 h, resazurin; for MBC: ATCC11775, TTC.
The next data set concerns E. coli K12 (ATCC 25404). Description: MIC and MBC, microtiter plate technique. It counts as cell-based. The conditions noted are these: Escherichia coli; for MBC: ATCC25404; for MIC: ATCC25404, 24 h.
The next data set relates to E. coli R2 (ATCC 39544). Put plainly: MIC and MBC, microtiter plate technique. The data set is classed as cell-based. The note with it: Escherichia coli; for MBC: ATCC39544; for MIC: ATCC39544, 24 h.
Another data set deals with E. coli R4 (ATCC 39543). Description: MIC and MBC, microtiter plate technique. The data set is classed as cell-based. The note with it: Escherichia coli; for MBC: ATCC39543; for MIC: ATCC39543, 24 h.

Values after ≈ are worked out from the molar mass of the structure shown. Where only a bound is given, the exact number is not on record here.

As to `COc1ccc(CN(C(=O)Cc2ccccc2)C(C(=O)NCc2ccc(F)cc2)c2ccc(O)c(O)c2)cc1` (stereo not shown) [Compound 5c, 2-(3,4-dihydroxyphenyl)-N-(4-fluorobenzyl)-2-(N-(4-methoxybenzyl)-2-phenylacetamido)-acetamide], the MIC in data set [1] turned out to be 0.84 µM (≈ 0.444 µg/mL); in the data set on S. aureus (ATCC 23235), 0.96 µM (≈ 0.507 µg/mL); in data set [2], 1.04 µM (≈ 0.55 µg/mL); in the data set on E. cloacae (ATCC 49141) it was 1.08 µM (≈ 0.571 µg/mL); in the data set on E. coli R3 (ATCC 11775), 1.61 µM (≈ 0.851 µg/mL); in the data set on E. coli K12 (ATCC 25404), 0.45 µM (≈ 0.238 µg/mL). Also, the MIC turned out to be 1 µM (≈ 0.529 µg/mL) in the data set with E. coli R2 (ATCC 39544) and 1.98 µM (≈ 1.05 µg/mL) against E. coli R4 (ATCC 39543). In addition, the MBC was determined as 0.94 µM (≈ 0.497 µg/mL) in data set [1]; 1 µM (≈ 0.529 µg/mL) in the data set on S. aureus (ATCC 23235); 1.09 µM (≈ 0.576 µg/mL) in data set [2]; 1.11 µM (≈ 0.587 µg/mL) with E. cloacae (ATCC 49141); 1.79 µM (≈ 0.946 µg/mL) against E. coli R3 (ATCC 11775); 0.66 µM (≈ 0.349 µg/mL) with E. coli K12 (ATCC 25404). Also, the MBC was 1.04 µM (≈ 0.55 µg/mL) with E. coli R2 (ATCC 39544) and 2.36 µM (≈ 1.25 µg/mL) with E. coli R4 (ATCC 39543). For the same compound, the inhibition at 100 µM in data set [3] is under 10%. The viability at 24 h, 1 µM in the data set “MTT cytotoxicity assay” came to 60.2%.

As to `CCCCN(C(C)=O)C(C(=O)NCc1ccc(OC)cc1)c1ccc(O)c(O)c1` (stereo not shown) [Compound 5q, 2-(N-butylacetamido)-2-(3,4-dihydroxyphenyl)-N-(4-methoxybenzyl)acetamide], the MIC in data set [1] was 0.81 µM (≈ 0.324 µg/mL); in the data set on S. aureus (ATCC 23235), 0.81 µM (≈ 0.324 µg/mL); in [2], 0.83 µM (≈ 0.332 µg/mL); against E. cloacae (ATCC 49141), 0.84 µM (≈ 0.336 µg/mL); in the data set with E. coli R3 (ATCC 11775) it was 1.13 µM (≈ 0.453 µg/mL); against E. coli K12 (ATCC 25404), 0.43 µM (≈ 0.172 µg/mL). In addition, the MIC in the data set with E. coli R2 (ATCC 39544) was determined as 0.82 µM (≈ 0.328 µg/mL); against E. coli R4 (ATCC 39543), 1.49 µM (≈ 0.597 µg/mL). Besides, the MBC in data set [1] worked out at 0.85 µM (≈ 0.34 µg/mL); in the data set with S. aureus (ATCC 23235), 0.91 µM (≈ 0.364 µg/mL); in data set [2] it was 0.87 µM (≈ 0.348 µg/mL); in the data set with E. cloacae (ATCC 49141), 0.85 µM (≈ 0.34 µg/mL); against E. coli R3 (ATCC 11775) it was 1.52 µM (≈ 0.609 µg/mL); in the data set with E. coli K12 (ATCC 25404), 0.79 µM (≈ 0.316 µg/mL). Moreover, the MBC came to 1.44 µM (≈ 0.577 µg/mL) with E. coli R2 (ATCC 39544) and 1.58 µM (≈ 0.633 µg/mL) against E. coli R4 (ATCC 39543). Also, the inhibition at 100 µM in data set [3] was under 10%. For the same compound, the viability at 24 h, 1 µM in the data set “MTT cytotoxicity assay” stood at 86.9%.

For the compound `O=C(NCc1ccc(F)cc1)C(c1ccc(O)c(O)c1)N(C(=O)Cc1ccccc1)C1CCCCC1` (stereo not shown) [Compound 5f], the MIC worked out at 0.68 µM (≈ 0.334 µg/mL) in [1]; 0.68 µM (≈ 0.334 µg/mL) in the data set on S. aureus (ATCC 23235); 0.64 µM (≈ 0.314 µg/mL) in data set [2]; 0.68 µM (≈ 0.334 µg/mL) in the data set with E. cloacae (ATCC 49141); 0.83 µM (≈ 0.407 µg/mL) against E. coli R3 (ATCC 11775); 0.22 µM (≈ 0.108 µg/mL) with E. coli K12 (ATCC 25404). Moreover, the values for the MIC against E. coli R2 (ATCC 39544) and against E. coli R4 (ATCC 39543) were 0.65 µM (≈ 0.319 µg/mL) and 1.28 µM (≈ 0.628 µg/mL), respectively. Moreover, the MBC in data set [1] is 0.71 µM (≈ 0.348 µg/mL); with S. aureus (ATCC 23235) it was 0.71 µM (≈ 0.348 µg/mL); in data set [2], 0.69 µM (≈ 0.338 µg/mL); with E. cloacae (ATCC 49141), 0.73 µM (≈ 0.358 µg/mL); in the data set on E. coli R3 (ATCC 11775), 1.18 µM (≈ 0.579 µg/mL); against E. coli K12 (ATCC 25404), 0.61 µM (≈ 0.299 µg/mL). For the same compound, the values for the MBC in the data set with E. coli R2 (ATCC 39544) and with E. coli R4 (ATCC 39543) were 0.75 µM (≈ 0.368 µg/mL) and 1.3 µM (≈ 0.638 µg/mL), respectively. This compound came in with an inhibition at 100 µM in data set [3] of under 10%.

In the case of `CCCCN(C(=O)Cc1ccccc1)C(C(=O)NCc1ccc(OC)cc1)c1ccc(O)c(O)c1` (stereo not shown) [Compound 5h], the MIC in [1] is 0.73 µM (≈ 0.348 µg/mL); in the data set on S. aureus (ATCC 23235), 0.67 µM (≈ 0.319 µg/mL); in data set [2] it was 0.69 µM (≈ 0.329 µg/mL); against E. cloacae (ATCC 49141) it was 0.74 µM (≈ 0.353 µg/mL); in the data set on E. coli R3 (ATCC 11775), 1.07 µM (≈ 0.51 µg/mL); with E. coli K12 (ATCC 25404), 0.25 µM (≈ 0.119 µg/mL). In addition, the MIC in the data set on E. coli R2 (ATCC 39544) turned out to be 0.86 µM (≈ 0.41 µg/mL); in the data set with E. coli R4 (ATCC 39543) it was 1.36 µM (≈ 0.648 µg/mL). Further, the MBC in data set [1] stood at 0.75 µM (≈ 0.357 µg/mL); against S. aureus (ATCC 23235) it was 0.67 µM (≈ 0.319 µg/mL); in [2], 0.72 µM (≈ 0.343 µg/mL); in the data set on E. cloacae (ATCC 49141) it was 0.73 µM (≈ 0.348 µg/mL); against E. coli R3 (ATCC 11775), 1.19 µM (≈ 0.567 µg/mL); against E. coli K12 (ATCC 25404), 0.71 µM (≈ 0.338 µg/mL). Moreover, the MBC in the data set on E. coli R2 (ATCC 39544) is 1.07 µM (≈ 0.51 µg/mL); against E. coli R4 (ATCC 39543) it was 1.42 µM (≈ 0.677 µg/mL). For the same compound, the inhibition at 100 µM in data set [3] was under 10%.
